Results on nine compounds are retold here after patent publication US7767196B2, “Optimized relaxivity and specificity hepatobiliary MRI contrast agent” (priority 2005, dated 2010).

For data set [1] the following is noted: cited from earlier work.
A further data set relates to rats. To be noted: cited from earlier work.
In data set [2] the test system is non-tumorigenic immortalized liver cell line (MIHA). As to the kind of experiment: Hepatocellular uptake (ICP-MS of Gd per cell). Format: cell-based. The protocol:
The non-tumorigenic immortalized liver cell line (MIHA) was grown and incubated in different concentrations of GdL and Gd-BOPTA. The mole of gadolinium uptake per cell under different concentrations of GdL incubation is presented as a function of concentration in FIG. 16. […] The average increase is 7.2×10^−13 mole of Gd per cell (about 1.97 times more than Gd-BOPTA) and the maximum uptake is 3.1×10^−12 mol of Gd per cell at 5 mM. There was no gadolinium ion found in the control experiments in the absence of GdL. The uptake varied slightly at the incubation concentration of less than 0.5 mM and linearly when the concentration increases from 0.5 to 5 mM. […]
The non-tumorigenic immortalized liver cell line (MIHA) (kindly provided by Dr J. R. Chowdhury at the Albert Einstein College of Medicine, New York) was grown in a 96-well plate (polystyrene, flat bottom tissue-culture treated, black with clear bottom) with Dulbecco's modified Eagle's medium (DMEM with 4 mM L-glutamine modified to contain 4.5 g l^−1 glucose and 1.5 g l^−1 sodium bicarbonate) containing 10% Bovine Calf Serum (BCS) in a 5% carbon dioxide incubator. […] The cells were exposed to 100 μl of 0.25% trypsin and harvested, then counted by hemacytometer. […] The samples were analyzed by Agilent 7500a ICP-MS with ICP-MS Top installed.

Data set [3] can be described thus: Variable-temperature 17O NMR transverse relaxation (water exchange). Format: physicochemical. Conditions: for τm: fitting parameter, 17O transverse relaxivity study. The protocol: Further investigation into the transverse relaxivity changes against temperature as shown in FIG. 6 was performed to determine the exchange rate. The maximum appears at a lower temperature, which implies a faster water exchange rate. The water exchange rates of the discussed ligands are in the order of Gd-BOPTA (kex=5.0×10^6)>Gd-DTPA (kex=4.0×10^6)>Gd-DOTA (kex=3.3×10^6)>GdL (kex=1.1×10^6). As anionic complexes promote water exchange, the first three complexes are anionic species with faster water exchange rates. GdL is neutral with a lower exchange rate, but with a lower osmolality, and importantly, the highest relaxivity.
Variable-temperature ^17O NMR measurements were recorded on a JEOL EX-90 (2.1 T) spectrometer that was equipped with a 5 mm probe, using D2O for external lock of the magnetic field. Experimental settings were spectral width 10000 Hz, pulse width 7 μs, acquisition time 10 ms, 1000 scans, and no sample spinning. The solution used contained ^17O enriched water (2.6%, Yeda, Israel). The observed transverse relaxation rate (R^O2obs) was calculated from the line width of the resonance at half height (Δν1/2): R^O2obs=πΔν1/2.

Data set [4] has as its system hepatocytes. To be noted: cited from earlier work.
The subject of data set [5] is hepatocytes. Conditions: cited from earlier work. The source holds these as a separate data set.
In data set [6] the test system is liver. Conditions: Schima et al., J. Magn. Res. Imaging 1999; cited from earlier work.
Data set [7] is described as follows: NMRD profile / relaxometric measurements (1H longitudinal relaxivity, incl. temperature and pH dependence). It counts as physicochemical. Conditions: for R1p: 20 MHz and 25° C.; for relaxivity (NMRD profile): 20 MHz, 7.2 pH and 25° C.; for rGdH / Δ^2 / τr / τv: fitting parameter, NMRD profile. The text has this: Relaxivity is used to describe the efficiency of a paramagnetic substance in increasing the water longitudinal relaxation rate. NMRD profiling is a direct method of measuring the proton relaxivity, and in principle it is sensitive to all of the parameters that influence relaxivity. It is the nuclear relaxation rate (1/T1) as a function of the Larmor frequency or the magnetic field, and describes the excess longitudinal proton relaxation that is caused by the presence of contrast agents as a function of the magnetic field using a field-cycling technique. The NMRD profile can probe the relaxivity mechanisms and understand how changes in the chemical structure of the complex interfere with them. The change in experimental parameters such as temperature and pressure influences the physical or chemical state of the sample, but the variation of the magnetic field has no influence on the chemistry of the sample. Thus, NMRD is a useful technique in the understanding of the numerous physiochemical parameters that determine the field dependence of proton relaxivities. The innersphere, outersphere, and second sphere contribute to the overall relaxivity and are influenced by numerous parameters, which are too complex to be well-defined by a single NMRD study; usually, reference to independent ^17O NMR relaxation rates and chemical shift is made. By the equations 2-7, several parameters that are related to the outersphere, and innersphere relaxation, such as the hydration number q, the τm, τR, τv, Δ^2, and rGdH, can be estimated.
As shown in FIGS. 5-8, all complexes have one innersphere water molecule. At low field, the electronic relaxation dominates the dipole-dipole correlation time for innersphere relaxivity and results in the first dispersion at around a […] proton Larmor frequency, while at high field, rotation relaxation dominates and the dispersion is at around 30 MHz. The higher relaxivity as compared to the clinical agents is postulated to the longer reorientational correlation time τR and the shorter rGdH. Relaxivity has a dependence on the τR at 20 MHz, which is determined by the molecular dimension.
The temperature and pH dependence of the longitudinal relaxivity were measured to study the tolerance of the complex under different physiological conditions (see FIGS. 9-10). At the low temperature under the slow exchange rate (τm>>T1M) a relatively longer τm is insignificant. The innersphere quenching is not severed and is not dominated by the outersphere mechanism at 273-278 K. Beyond 278 K the innersphere contribution increases up to 288 K. This is the τm≈T1M region, where the onset of the innersphere and the slow water exchange is not interfered with. From 288 K to 330 K, there is a gradual drop in the relaxivity due to the increase in D and T1M which causes both the innersphere and outersphere relaxivities to fall under the fast exchange condition (τm<<T1M). The relaxivity is 4.93 mM^−1s^−1at physiological temperature. […] The structural arrangement around the metal centre is not severely distorted, which allows a high stability against different pH.
NMRD profiles measure the longitudinal water proton relaxation rate as a function of magnetic fields. Measurements were performed by a Spinmaster FFC fast field cycling NMR relaxometer that covered a continuum of magnetic fields from 0.00024 to 0.47 T. The temperature was controlled by circulating Freon from an external bath and measured by a thermometer that was inserted into the Freon close to the sample. The relaxometer worked under complete control with the reproducibility of the measured T1 values estimated to be ±2%. The NMRD profiles were acquired for a 1-2 mM solution of the complex. Xylenol orange test was employed to check the absence of free Gd(III).

The conditions of data set [8]: versus 0.29 osmol kg^−1 of body fluid; cited from earlier work.
The test system of data set [9] is liver. Conditions: 0.1 mmol kg^−1 dose, intravenous bolus; cited from earlier work.
Setting [10] is: 20 MHz, temperature in parentheses: 40.

Values joined by “and” are separate entries in the source; they are usually repeats but may differ in a detail not shown here. Identical values can stand only once. Like-named read-outs stand apart in the source and are kept apart here.

In the case of `O=C([O-])CN1CCN(CC(=O)[O-])CCN([C@H](CO)[C@H](O)CO)CCN(CC(=O)[O-])CC1.[Gd+3]` (racemic) [Gd-DO3A-butrol, gadobutrol], in data set [1] (setting [10]), the Relaxivity is on record as 3.60 (40) mM^−1 s^−1.

As to `[Gd+3]` [Gd(III) aqua ion], the LD50 (commonly the dose at which mortality reaches 50%) in the data set with rats was 0.1 to 0.2 mmol/kg.

On to `CNC(=O)CN(CCN(CCN(CC(=O)[O-])CC(=O)NC)CC(=O)[O-])CC(=O)[O-].[Gd+3]` [Gd-BMA, gadodiamide], for which the Relaxivity in [1] (20 MHz and 25° C.) was 4.39 mM⁻¹ s⁻¹.

As for `COCCNC(=O)CN(CCN(CCN(CC(=O)[O-])CC(=O)NCCOC)CC(=O)[O-])CC(=O)[O-].[Gd+3]` [Gd-BMEA, gadoversetamide], the Relaxivity in [1] (setting [10]) is on record as 4.70 (40) mM^−1 s^−1.

In the case of `CNC[C@H](O)[C@@H](O)[C@H](O)[C@H](O)CO.CNC[C@H](O)[C@@H](O)[C@H](O)[C@H](O)CO.O=C([O-])CN(CCN(CC(=O)[O-])CC(=O)O)CCN(CC(=O)O)C(COCc1ccccc1)C(=O)[O-].[Gd+3]` (stereo not shown) [Gd-BOPTA, gadobenate dimeglumine], the “dose dependence of uptake” value in data set [2] was “not significant”. In addition, in data set [3], the “water exchange rate kex” value was 5.0×10^6 and the τm is 200 ns. Besides, the “percentage of contrast agent excreted” value in the data set on hepatocytes [4] (humans, intravenous injection) is “over 95%”. For the same compound, the “hepatic (hepatocellular) uptake” value in the data set with hepatocytes [4] (humans) is 3-5 % of the injected dose. The hepatocellular uptake with hepatocytes [5] (rats) was 38.6%. Also, the hepatic intensity enhancement in the data set with liver [6] was 55%. The Relaxivity in data set [1] (20 MHz and 25° C.) was 5.2 mM⁻¹ s⁻¹ and 5.20 mM⁻¹ s⁻¹. Besides, in data set [7], the R1p was 5.20 mM⁻¹ s⁻¹, the “relaxivity (NMRD profile)” value amounted to 5.20 mM⁻¹ s⁻¹, the rGdH is on record as 2.96 Å and the “Δ^2” value was 4.2 E19 s^−1. In addition, in data set [7], the τr stood at 88 ps and the τv stood at 26 ps.

For the compound `CNC[C@H](O)[C@@H](O)[C@H](O)[C@H](O)CO.O=C([O-])CN1CCN(CC(=O)[O-])CCN(CC(=O)O)CCN(CC(=O)[O-])CC1.[Gd+3]` [Gd-DOTA, gadoterate meglumine], in data set [3], the “water exchange rate kex” value is 3.3×10^6 and the τm was 300 ns. In data set [1] (20 MHz and 25° C.), the Relaxivity was 4.73 mM⁻¹ s⁻¹. Further, in data set [7], the R1p was 4.73 mM⁻¹ s⁻¹, the “relaxivity (NMRD profile)” value was 4.73 mM⁻¹ s⁻¹, the rGdH came to 3.10 Å and the “Δ^2” value is given as 1.3 E19 s^−1. Besides, in [7], the τr is 73 ps and the τv was 7.7 ps.

For the compound `CNC[C@H](O)[C@@H](O)[C@H](O)[C@H](O)CO.CNC[C@H](O)[C@@H](O)[C@H](O)[C@H](O)CO.O=C([O-])CN(CCN(CC(=O)[O-])CC(=O)O)CCN(CC(=O)[O-])CC(=O)O.[Gd+3]` [Gd-DTPA, gadopentetate dimeglumine], in [3], the “water exchange rate kex” value is on record as 4.0×10^6 and the τm stood at 250 ns. For the same compound, the osmolality in data set [8] is recorded as 1.96 osmol kg^−1. In addition, the tolerance result in the data set on liver [9] was “good tolerance”. In [1] (20 MHz and 25° C.), the Relaxivity is 4.69 mM⁻¹ s⁻¹. Also, in data set [7], the R1p is 4.69 mM⁻¹ s⁻¹, the rGdH is on record as 3.10 Å, the “Δ^2” value is on record as 4.2 E19 s^−1 and the τr came to 73 ps. Further, the τv in data set [7] amounted to 20 ps.

As for `CCOc1ccc(C[C@@H](CN(CCN(CC(=O)[O-])CC(=O)[O-])CC(=O)[O-])N(CC(=O)[O-])CC(=O)[O-])cc1.[Gd+3].[Na+].[Na+]` [Gd-EOB-DTPA], the “hepatic (hepatocellular) uptake” value with hepatocytes [4] (in vivo) is 50 % of the injected dose. Moreover, the hepatocellular uptake with hepatocytes [5] (rat, in vivo) is recorded as 70%.

For `CC(O)CN1CCN(CC(=O)[O-])CCN(CC(=O)[O-])CCN(CC(=O)[O-])CC1.[Gd+3]` (stereo not shown) [Gd-HP-DO3A, gadoteridol], in data set [1] (setting [10]), the Relaxivity was 3.70 (40) mM^−1 s^−1.
